In assay [1] the target is T1, Cbl-b (Homo sapiens, UniProt Q13191). Description: Cbl-b inhibition assay (Cbl-b activity assay, FRET, Biological Example 1; 100 mM NaCl, 60 nM Src kinase). As to conditions: upper bound stated in text lists; read-out: IC50 values in the Cbl-b inhibition assay of Biological Example 1. The format is biochemical. From the text:
FIG. 1A and FIG. 1B show a series of diagrams depicting the activity assay utilized to assay inhibition of Cbl-b activity by a Cbl-b inhibitor. FIG. 1A: The activity assay mixture comprises an N-terminal biotinylated Avi-tagged Cbl-b, an E2 enzyme (i.e., UbcH5B) irreversibly conjugated to Bodipy-Fluorescein tagged ubiquitin (i.e., UbcH5B-Ub), a Src kinase, streptavidin-terbium, and assay buffer. Phosphorylation of Cbl-b by the Src kinase allows UbcH5B-Ub to bind to Cbl-b and bring the Bodipy-Fluorescein tagged ubiquitin in proximity to the streptavidin-terbium bound to the N-terminal biotinylated Avi-tagged Cbl-b. […] FIG. 1B: In the presence of a Cbl-b inhibitor, such as one described herein, Cbl-b is unable to bind UbcH5B-Ub. The lack of a FRET signal indicates Cbl-b is inhibited by the Cbl-b inhibitor. Ub indicates ubiquitin; N-Avi indicates biotinylated Avi-tag at the N-terminus of Cbl-b; inhibitor indicates Cbl-b inhibitor.
The lack of a FRET signal indicates Cbl-b is inhibited by the Cbl-b inhibitor. In FIG. 1A and FIG. 1B, Ub indicates ubiquitin; N-Avi indicates biotinylated Avi-tag at the N-terminus of Cbl-b; and inhibitor indicates Cbl-b inhibitor.

Assay [2] deals with T1, Cbl-b. Description: Cbl-b activity assay (Cbl-b inhibition assay), TR-FRET of Cbl-b interaction with UbcH5B-Ub. It is filed as biochemical. To be noted: assay buffer with 100 mM NaCl, 60 nM Src kinase; read-out: Cbl-b activity IC50. As to the method: The ability of candidate compounds to inhibit Cbl-b activity was measured by monitoring the interaction of Cbl-b with UbcH5B-Ub in the presence of the candidate compound.
Fluorescently labeled UbcH5B-Ub was prepared by conjugating ubiquitin (Ub), labeled at its N-terminus with Bodipy-Fluorescein, to UbcH5B, an E2 enzyme, harboring a cysteine to lysine mutation at position 85. […] After incubation in the presence of the candidate compound, the plate was incubated for an additional 1.5 hours in the presence of 60 nM Src kinase with 1 mM ATP and 5 mM MgCl2 (final concentrations). […] The plate was incubated for 1 hour.
Column marked with an asterisk (*) were tested as described above with assay buffer containing 50 mM NaCl instead of 100 mM NaCl and 30 nM Src kinase instead of 60 nM Src kinase. The resulting data for the Cbl-b binding assay was solvent corrected and double referenced prior to analysis. All data were globally fit to a steady-state affinity and kinetic binding model where applicable). Fit parameters were derived from a 1:1 binding model using the Biacore T200 Evaluation Software V2.0 (GE Healthcare) (Table 2).
(Time-resolved FRET reads energy transfer from a long-lived donor to a nearby acceptor.)

By IC50 is commonly meant the concentration that inhibits the measured activity by half.

T1 sequence (Q13191 36-427): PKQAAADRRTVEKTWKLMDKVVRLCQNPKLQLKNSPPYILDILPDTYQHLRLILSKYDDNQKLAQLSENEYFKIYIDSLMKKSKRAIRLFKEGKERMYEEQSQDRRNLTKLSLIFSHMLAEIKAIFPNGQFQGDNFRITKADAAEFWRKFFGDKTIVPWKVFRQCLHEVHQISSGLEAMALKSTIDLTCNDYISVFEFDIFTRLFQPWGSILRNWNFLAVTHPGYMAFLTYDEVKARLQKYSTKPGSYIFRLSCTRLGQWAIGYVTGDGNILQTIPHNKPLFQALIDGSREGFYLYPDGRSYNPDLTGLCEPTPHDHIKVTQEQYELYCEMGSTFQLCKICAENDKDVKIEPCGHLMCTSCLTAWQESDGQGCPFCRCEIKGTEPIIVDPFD

As to `C[C@H](Sc1nncn1C)c1ccnc(NC(=O)c2csc(C(F)(F)F)n2)c1` [Compound 118, N-[4-[(1S)-1-[(4-methyl-1,2,4-triazol-3-yl)sulfanyl]ethyl]-2-pyridyl]-2-(trifluoromethyl)thiazole-4-carboxamide], the IC50 on Cbl-b [1] is not above 10 µM; on Cbl-b [2] it was 1 to 3 µM.

For the compound `C[C@H](Sc1nncn1C)c1ccnc(NC(=O)c2cc(Br)cc(C(F)(F)F)n2)c1` [Compound 119, 4-bromo-N-[4-[(1S)-1-[(4-methyl-1,2,4-triazol-3-yl)sulfanyl]ethyl]-2-pyridyl]-6-(trifluoromethyl)pyridine-2-carboxamide], the concentration for half-maximal inhibition (IC50) at Cbl-b [1] was not above 1 µM; on Cbl-b [2], 0.301 to 1 µM.

With `CC(Sc1nncn1C)c1cncc(NC(=O)c2cccc(C(F)(F)F)n2)c1` (stereo not drawn) [Compound 127, N-[5-[1-[(4-methyl-1,2,4-triazol-3-yl)sulfanyl]ethyl]-3-pyridyl]-6-(trifluoromethyl)pyridine-2-carboxamide], the 50% inhibitory concentration (IC50) on Cbl-b [1] is not above 10 µM; on Cbl-b [2], 3 to 10 µM.

Take `Cc1c[nH]nc1S[C@@H](C)c1ccnc(NC(=O)c2ccc3ccccc3n2)c1` [Compound 128a, (S)-N-(4-(1-((4-methyl-1H-pyrazol-3-yl)thio)ethyl)pyridin-2-yl)quinoline-2-carboxamide]: the IC50 is not above 10 µM at Cbl-b [1] and 1 to 3 µM on Cbl-b [2].

As to `Cc1cn(C)c(SC(C)c2ccnc(NC(=O)c3ccc4ccccc4n3)c2)n1` (stereo not drawn) [Compound 129, N-(4-(1-((1,4-dimethyl-1H-imidazol-2-yl)thio)ethyl)pyridin-2-yl)quinoline-2-carboxamide], the IC50 at Cbl-b [1] is not above 10 µM; on Cbl-b [2] it was more than 10 µM.

Consider `CC(Sc1nncn1C)c1cc(NC(=O)c2ccc3ccccc3n2)c2c(c1)C(C)(O)CC2` (stereo not drawn) [Compound 131, N-(1-hydroxy-1-methyl-6-(1-(4-methyl-4H-1,2,4-triazol-3-ylthio)ethyl)-2,3-dihydro-1H-inden-4-yl)quinoline-2-carboxamide], for which the IC50 on Cbl-b [1] is not above 10 µM; at Cbl-b [2], 3 to 10 µM.

As to `C[C@H](Sc1nncn1C)c1cccc(NC(=O)c2cc(C(=O)N3CCC[C@H]3C)ccn2)c1` [Compound 142, N-(3-((S)-1-((4-methyl-4H-1,2,4-triazol-3-yl)thio)ethyl)phenyl)-4-((R)-2-methylpyrrolidine-1-carbonyl)picolinamide], the IC50 is not above 10 µM on Cbl-b [1] and more than 10 µM at Cbl-b [2].

Take `C[C@H](Sc1nncn1C)c1cccc(NC(=O)c2cc(C(=O)N3CCC(S(C)(=O)=O)C3)ccn2)c1` (stereo partly drawn) [Compound 158, N-(3-((A)-1-((4-methyl-4H-1,2,4-triazol-3-yl)thio)ethyl)phenyl)-4-(3-(methylsulfonyl)pyrrolidine-1-carbonyl)picolinamide]: the concentration for half-maximal inhibition (IC50) on Cbl-b [1] was not above 10 µM; on Cbl-b [2] it was 3 to 10 µM.

On to `CC(Sc1nncn1C)c1cccc(N2Cc3ccc(C(C)(C)O)cc3C2=O)c1` (stereo not drawn) [Compound 165, 6-(1-hydroxy-1-methyl-ethyl)-2-[3-[1-[(4-methyl-1,2,4-triazol-3-yl)sulfanyl]ethyl]phenyl]isoindolin-1-one], for which the IC50 was not above 10 µM at Cbl-b [1] and 3 to 10 µM at Cbl-b [2].

Regarding `CNC(=O)c1ccc2c(c1)C(=O)N(c1cc(C(C)Sc3nncn3C)ccn1)C2` (stereo not drawn) [Compound 173, N-methyl-2-(4-[1-[(4-methyl-4H-1,2,4-triazol-3-yl)sulfanyl]ethyl]pyridin-2-yl)-3-oxo-2,3-dihydro-1H-isoindole-5-carboxamide], the IC50 at Cbl-b [1] was not above 10 µM; at Cbl-b [2], 3 to 10 µM.

Take `CC(Sc1nncn1C)c1cc(NCCO)nc(N2Cc3c(cccc3C(F)(F)F)C2=O)c1` (stereo not drawn) [Compound 174, 2-[6-(2-hydroxyethylamino)-4-[1-[(4-methyl-1,2,4-triazol-3-yl)sulfanyl]ethyl]-2-pyridyl]-4-(trifluoromethyl)isoindolin-1-one]: the figures for the 50% inhibitory concentration (IC50) at Cbl-b [1] and on Cbl-b [2] were not above 10 µM and 1 to 3 µM, respectively.

Regarding `C[C@H](Cc1nncn1C)c1cccc(NC(=O)c2ccn(C)n2)c1` [Compound 197, (R)-1-methyl-N-(3-(1-(4-methyl-4H-1,2,4-triazol-3-yl)propan-2-yl)phenyl)-1H-pyrazole-3-carboxamide], the IC50 is not above 10 µM at Cbl-b [1] and 1 to 3 µM at Cbl-b [2].

In the case of `Cc1conc1C[C@H](C)c1cccc(NC(=O)c2ccnc(C(F)(F)F)n2)c1` [Compound 213b, (S)-N-(3-(1-(4-methylisoxazol-3-yl)propan-2-yl)phenyl)-2-(trifluoromethyl)pyrimidine-4-carboxamide], the IC50 on Cbl-b [1] was not above 10 µM; at Cbl-b [2], 3 to 10 µM.

In the case of `Cc1ccn(CC(C)c2cccc(NC(=O)c3cccc(C(F)(F)F)n3)c2)n1` (stereo not drawn) [Compound 216, N-(3-(1-(3-methyl-1H-pyrazol-1-yl)propan-2-yl)phenyl)-6-(trifluoromethyl)picolinamide], the IC50 was not above 10 µM on Cbl-b [1] and 3 to 10 µM at Cbl-b [2].

With `Cc1nnnn1CC(C)c1cccc(NC(=O)c2cccc(C(F)(F)F)n2)c1` (stereo not drawn) [Compound 217, N-[3-[1-methyl-2-(5-methyltetrazol-1-yl)ethyl]phenyl]-6-(trifluoromethyl)pyridine-2-carboxamide], the IC50 on Cbl-b [1] was not above 10 µM; at Cbl-b [2], more than 10 µM.

In the case of `Cc1cnnn1CC(C)c1cccc(NC(=O)c2cccc(C(F)(F)F)n2)c1` (stereo not drawn) [Compound 218, N-[3-[1-methyl-2-(5-methyltriazol-1-yl)ethyl]phenyl]-6-(trifluoromethyl)pyridine-2-carboxamide], the IC50 at Cbl-b [1] was not above 0.5 µM; at Cbl-b [2] it was 0.301 to 1 µM.

Turning to `CC(Cn1[nH]cnc1=O)c1cccc(NC(=O)c2cccc(C(F)(F)F)n2)c1` (stereo not drawn) [Compound 219, N-[3-[1-methyl-2-(3-oxo-1H-1,2,4-triazol-2-yl)ethyl]phenyl]-6-(trifluoromethyl)pyridine-2-carboxamide], the results for the IC50 at Cbl-b [1] and at Cbl-b [2] were not above 10 µM and 3 to 10 µM, respectively.

As for `C[C@H](Cc1nncn1C)c1cccc(NC(=O)c2cc(C(=O)NC3CCOC3)ccn2)c1` (stereo partly drawn) [Compound 228, N2-(3-((R)-1-(4-methyl-4H-1,2,4-triazol-3-yl)propan-2-yl)phenyl)-N4-(tetrahydrofuran-3-yl)pyridine-2,4-dicarboxamide], the results for the IC50 at Cbl-b [1] and on Cbl-b [2] were not above 10 µM and 3 to 10 µM, respectively.

Regarding `C[C@H](Cc1nncn1C)c1cccc(NC(=O)c2cc(C(=O)N3CC[C@@](C)(N)C3)ccn2)c1` [Compound 230, 4-((R)-3-amino-3-methylpyrrolidine-1-carbonyl)-N-(3-((R)-1-(4-methyl-4H-1,2,4-triazol-3-yl)propan-2-yl)phenyl)picolinamide 2,2,2-trifluoroacetate], the IC50 on Cbl-b [1] is not above 10 µM; at Cbl-b [2] it was 3 to 10 µM.

As for `C[C@H](Cc1nncn1C)c1cccc(NC(=O)c2cc(C(=O)N3CC(CO)C3)ccn2)c1` [Compound 232, 4-[3-(hydroxymethyl)azetidine-1-carbonyl]-N-[3-[(2R)-1-(4-methyl-4H-1,2,4-triazol-3-yl)propan-2-yl]phenyl]pyridine-2-carboxamide], the concentration for half-maximal inhibition (IC50) is not above 10 µM on Cbl-b [1] and 1 to 3 µM on Cbl-b [2].

Consider `C[C@H](Cc1nncn1C)c1cccc(NC(=O)c2cc(C(=O)N3CCC4(CCO4)C3)ccn2)c1` (stereo partly drawn) [Compound 237, N-[3-[(2R)-1-(4-methyl-4H-1,2,4-triazol-3-yl)propan-2-yl]phenyl]-4-[1-oxa-6-azaspiro[3.4]octane-6-carbonyl]pyridine-2-carboxamide], for which the IC50 at Cbl-b [1] was not above 10 µM; at Cbl-b [2] it was 3 to 10 µM.

Turning to `C[C@H](Cc1ncco1)c1cccc(N2Cc3c(cccc3C(F)(F)F)C2=O)c1` [Compound 261, (R)-2-(3-(1-(oxazol-2-yl)propan-2-yl)phenyl)-4-(trifluoromethyl)isoindolin-1-one], the IC50 on Cbl-b [1] is not above 10 µM; on Cbl-b [2] it was 3 to 10 µM.

For the compound `CC(Cc1nccn1C)c1cccc(N2Cc3c(cccc3C(F)(F)F)C2=O)c1` (stereo not drawn) [Compound 267, 2-(3-(1-(1-methyl-1H-imidazol-2-yl)propan-2-yl)phenyl)-4-(trifluoromethyl)isoindolin-1-one], the figures for the IC50 at Cbl-b [1] and at Cbl-b [2] were not above 10 µM and 3 to 10 µM, respectively.

For `CC(Cc1nocc1CO)c1cccc(N2Cc3c(cccc3C(F)(F)F)C2=O)c1` (stereo not drawn) [Compound 269, 2-(3-(1-(4-(hydroxymethyl)isoxazol-3-yl)propan-2-yl)phenyl)-4-(trifluoromethyl)isoindolin-1-one], the IC50 at Cbl-b [1] is not above 10 µM; on Cbl-b [2] it was 1 to 3 µM.
